Measured values reported in patent US20110319432A1 (priority 2009, published 2011).
Read-outs that look alike come from different tables or passages of the source.

System: Phytophthora infestans
Type: cell-based
Details: MTP, absorption 405 nm, 7 days after inoculation, 18° C

Row | Compound | Observed efficacy (0.016 ppm) [%] | Observed efficacy (0.063 ppm) [%] | Observed efficacy (0.25 ppm) [%]
1 | O=C(NCCc1ncc(C(F)(F)F)cc1Cl)c1ccccc1C(F)(F)F [Fluopyram] | 5 | 5 | 
2 | CCCCCCCCc1c(CC)nc2ncnn2c1N [5-Ethyl-6-octyl-[1,2,4]triazolo[1,5-a]pyrimidin-7-ylamine] |  |  | 31
